Assays:
[1] = target: Human recombinant Acetyl-CoA Carboxylase 2 (ACC2) (Homo sapiens, UniProt O00763); experiment: Assay X: ACC2 inhibition, inorganic phosphate (malachite green); assay type: biochemical; settings: Assay X: 37° C., 1.5 h, 5 min pre-incubation
Outline: (§1)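 Human recombinant enzyme pre-incubated 5 min with compound before substrate addition; reaction run 1.5 h, then inorganic phosphate detected by malachite green absorbance at 660 nm. Ten concentrations tested in triplicate; apparent IC50 from four-parameter curve fit.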

[2] = target: Human recombinant Acetyl-CoA Carboxylase 1 (ACC1) (Homo sapiens, UniProt Q13085); experiment: Assay X: ACC1 inhibition, inorganic phosphate (malachite green); assay type: biochemical; settings: Assay X: 37° C., 1.5 h, 5 min pre-incubation
Outline: as §1

Human recombinant Acetyl-CoA Carboxylase 2 (ACC2), sequence (O00763 whole entry): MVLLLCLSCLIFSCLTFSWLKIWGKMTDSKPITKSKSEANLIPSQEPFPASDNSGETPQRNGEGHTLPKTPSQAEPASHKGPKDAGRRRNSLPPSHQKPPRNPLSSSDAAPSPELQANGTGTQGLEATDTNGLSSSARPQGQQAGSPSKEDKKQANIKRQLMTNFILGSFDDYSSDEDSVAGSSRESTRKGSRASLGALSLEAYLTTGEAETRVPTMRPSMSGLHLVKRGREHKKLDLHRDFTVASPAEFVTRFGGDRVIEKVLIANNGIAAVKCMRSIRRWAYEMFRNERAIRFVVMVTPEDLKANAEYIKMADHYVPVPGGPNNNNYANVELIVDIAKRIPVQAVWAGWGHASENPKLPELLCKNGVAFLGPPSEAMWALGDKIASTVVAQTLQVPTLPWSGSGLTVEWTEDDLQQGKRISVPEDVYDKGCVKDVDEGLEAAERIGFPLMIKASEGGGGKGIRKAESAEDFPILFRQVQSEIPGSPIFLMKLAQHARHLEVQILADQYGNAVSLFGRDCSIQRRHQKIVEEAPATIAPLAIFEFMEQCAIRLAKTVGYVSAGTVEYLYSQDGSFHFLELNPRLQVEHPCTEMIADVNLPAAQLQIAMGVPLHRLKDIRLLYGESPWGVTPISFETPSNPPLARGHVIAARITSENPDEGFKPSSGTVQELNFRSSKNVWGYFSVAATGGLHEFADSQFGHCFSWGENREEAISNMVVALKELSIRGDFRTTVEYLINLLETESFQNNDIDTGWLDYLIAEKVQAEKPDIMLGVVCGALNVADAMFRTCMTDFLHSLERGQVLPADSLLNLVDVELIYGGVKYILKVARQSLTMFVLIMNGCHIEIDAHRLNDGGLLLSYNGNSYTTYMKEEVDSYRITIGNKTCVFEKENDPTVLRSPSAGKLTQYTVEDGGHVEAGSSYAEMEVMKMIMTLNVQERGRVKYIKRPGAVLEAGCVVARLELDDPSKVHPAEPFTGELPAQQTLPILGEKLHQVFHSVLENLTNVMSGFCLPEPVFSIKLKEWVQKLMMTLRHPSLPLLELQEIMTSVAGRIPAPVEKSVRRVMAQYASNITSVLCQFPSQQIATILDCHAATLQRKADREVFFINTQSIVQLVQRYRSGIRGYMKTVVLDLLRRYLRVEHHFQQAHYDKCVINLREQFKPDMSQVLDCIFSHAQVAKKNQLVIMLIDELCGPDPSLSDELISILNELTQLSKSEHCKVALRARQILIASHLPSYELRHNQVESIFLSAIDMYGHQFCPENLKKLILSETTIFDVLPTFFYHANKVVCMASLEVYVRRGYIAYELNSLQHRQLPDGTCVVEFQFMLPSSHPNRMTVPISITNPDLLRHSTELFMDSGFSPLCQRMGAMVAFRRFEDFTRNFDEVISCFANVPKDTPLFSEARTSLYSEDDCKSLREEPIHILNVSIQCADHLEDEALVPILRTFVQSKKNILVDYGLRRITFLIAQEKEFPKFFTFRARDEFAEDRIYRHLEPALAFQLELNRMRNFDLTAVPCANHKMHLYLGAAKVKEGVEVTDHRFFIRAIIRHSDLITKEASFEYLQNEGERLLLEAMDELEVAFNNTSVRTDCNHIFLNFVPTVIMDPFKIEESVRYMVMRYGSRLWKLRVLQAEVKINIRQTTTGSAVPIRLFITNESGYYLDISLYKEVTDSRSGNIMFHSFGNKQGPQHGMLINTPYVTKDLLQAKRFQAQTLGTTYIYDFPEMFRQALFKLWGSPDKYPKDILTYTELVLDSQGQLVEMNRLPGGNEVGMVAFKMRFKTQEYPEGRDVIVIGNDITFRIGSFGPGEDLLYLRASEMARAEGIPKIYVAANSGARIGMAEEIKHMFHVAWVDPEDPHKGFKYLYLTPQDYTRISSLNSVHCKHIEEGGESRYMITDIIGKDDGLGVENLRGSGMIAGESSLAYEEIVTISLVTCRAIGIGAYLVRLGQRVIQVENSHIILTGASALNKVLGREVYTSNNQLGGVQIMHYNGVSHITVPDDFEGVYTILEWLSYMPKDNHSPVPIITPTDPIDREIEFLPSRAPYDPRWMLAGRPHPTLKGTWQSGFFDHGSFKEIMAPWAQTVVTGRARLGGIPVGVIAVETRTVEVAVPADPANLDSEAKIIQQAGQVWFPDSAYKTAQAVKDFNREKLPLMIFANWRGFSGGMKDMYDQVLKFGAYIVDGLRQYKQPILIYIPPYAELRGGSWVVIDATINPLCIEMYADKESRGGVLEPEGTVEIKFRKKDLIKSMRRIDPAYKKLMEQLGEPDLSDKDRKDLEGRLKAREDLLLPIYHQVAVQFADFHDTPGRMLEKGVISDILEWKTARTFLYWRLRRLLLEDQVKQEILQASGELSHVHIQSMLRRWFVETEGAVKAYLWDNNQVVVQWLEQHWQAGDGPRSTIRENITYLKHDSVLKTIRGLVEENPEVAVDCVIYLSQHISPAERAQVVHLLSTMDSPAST

IC50 [1]	IC50 [2]	Structure (SMILES)
110 nM	780 nM	CC(C)(C)OC(=O)NC[C@H]1CC[C@H](CNC(=O)c2cc(N3CCC(CC(O)CN4CCCC4)CC3)nc3ccccc23)CC1 (single isomer, unassigned) [Example 209, (S) or (R) tert-Butyl [(trans-4-{[({2-[4-(2-hydroxy-3-pyrrolidin-1-ylpropyl)-piperidin-1-yl]quinolin-4-yl}carbonyl)amino]-methyl}cyclohexyl)methyl]carbamate]
110 nM	950 nM	CN1CCC(C2CCN(c3cc(C(=O)NC[C@H]4CC[C@H](CNC(=O)OC(C)(C)C)CC4)c4ccccc4n3)CC2)CC1 [Example 225, tert-Butyl ({trans-4-[({[2-(1′-methyl-4,4′-bipiperidin-1-yl)quinolin-4-yl]carbonyl}amino)methyl]cyclohexyl}methyl)carbamate]
150 nM	630 nM	CN(C)CCOc1ccc(-c2cc(C(=O)NC[C@H]3CC[C@H](CNC(=O)OC(C)(C)C)CC3)c3ccccc3n2)cc1 [Example 203, tert-Butyl {[trans-4-({[(2-{4-[2-(dimethylamino)ethoxy]phenyl}quinolin-4-yl)carbonyl]amino}methyl)cyclohexyl]methyl}carbamate]
380 nM	1420 nM	CN(C)CCNc1ccc(-c2cc(C(=O)NC[C@H]3CC[C@H](CNC(=O)OC4CCOCC4)CC3)c3ccccc3n2)cn1 [Example 198, Tetrahydro-2H-pyran-4-yl({trans-4-[({[2-(6-{[2-(dimethylamino)-ethyl]amino}pyridin-3-yl)quinolin-4-yl]carbonyl}amino)-methyl]cyclohexyl}-methyl)carbamate]
1370 nM	4770 nM	CC(C#N)OC(=O)NC[C@H]1CC[C@H](CNC(=O)c2cc(-c3ccc(N4CCN(C)CC4)nc3)nc3ccccc23)CC1 (stereo partly drawn) [Example 121, 1-Cyanoethyl[(trans-4-{[({2-[6-(4-methylpiperazin-1-yl)pyridin-3-yl]quinolin-4-yl}carbonyl)amino]methyl}cyclohexyl)methyl]carbamate]
480 nM	1200 nM	Cc1nc(CNc2ccc(-c3cc(C(=O)NC[C@H]4CC[C@H](CNC(=O)OC(C)(C)C)CC4)c4ccccc4n3)cn2)no1 [Example 170, tert-Butyl({trans-4-[({[2-(6-{[(5-methyl-1,2,4-oxadiazol-3-yl)methyl]amino}-pyridin-3-yl)quinolin-4-yl]carbonyl}amino)-methyl]cyclohexyl}-methyl)carbamate]
370 nM	880 nM	CC(C)(C)OC(=O)NC[C@H]1CC[C@H](CNC(=O)c2cc(-c3ccc(NCC(O)CO)nc3)nc3ccccc23)CC1 (relative stereo) [Example 162, tert-Butyl{[trans-4-({[(2-{6-[(2,3-dihydroxypropyl)amino]pyridin-3-yl}quinolin-4-yl)carbonyl]amino}-methyl)cyclohexyl]-methyl}carbamate]
210 nM	1520 nM	CC(C)(C)OC(=O)NC[C@H]1CC[C@H](CNC(=O)c2cc(N3CCC(CCNC4CCOCC4)CC3)nc3ccccc23)CC1 [Example 228, tert-Butyl{[trans-4-({[(2-{4-[2-(tetrahydro-2H-pyran-4-ylamino)ethyl]piperidin-1-yl}quinolin-4-yl)carbonyl]amino}-methyl)cyclohexyl]-methyl}carbamate]
850 nM	2170 nM	O=C(NC[C@H]1CC[C@H](CNC(=O)c2cc(-c3ccc(N4CC[C@@H](O)C4)nc3)nc3ccccc23)CC1)O[C@H]1CCOC1 [Example 201, (3S)-Tetrahydrofuran-3-yl {[trans-4-({[(2-{6-[(3R)-3-hydroxypyrrolidin-1-yl]pyridin-3-yl}quinolin-4-yl)carbonyl]amino}methyl)cyclohexyl]methyl}-carbamate]
230 nM	1160 nM	CCNC(=O)Nc1sc2ccccc2c1C(=O)NC[C@H]1CC[C@H](CNC(=O)OC(C)(C)C)CC1 [Example 223, tert-Butyl [(trans-4-{[({2-[(ethylcarbamoyl)amino]-1-benzothiophen-3-yl}carbonyl)amino]methyl}cyclohexyl)methyl]carbamate]
130 nM	350 nM	CC(C)(C)OC(=O)NC[C@H]1CC[C@H](CNC(=O)c2cc(-c3ccc(NCCCO)nc3)nc3ccccc23)CC1 [Example 150, tert-Butyl{[trans-4-({[(2-{6-[(3-hydroxypropyl)amino]pyridin-3-yl}quinolin-4-yl)carbonyl]amino}-methyl)cyclohexyl]methyl}carbamate]
160 nM	540 nM	CC(C)(C)OC(=O)NC[C@H]1CC[C@H](CNC(=O)c2cc(-c3ccc(N4CCNC(=O)C4)nc3)nc3ccccc23)CC1 [Example 165, tert-Butyl[(trans-4-{[({2-[6-(3-oxopiperazin-1-yl)-pyridin-3-yl]quinolin-4-yl}carbonyl)amino]-methyl}cyclohexyl)methyl]carbamate]
510 nM	1100 nM	O=C(NC[C@H]1CC[C@H](CNC(=O)c2cc(-c3ccc(N4CC[C@@H](O)C4)nc3)nc3ccccc23)CC1)OC1CCOCC1 [Example 202, Tetrahydro-2H-pyran-4-yl {[trans-4-({[(2-{6-[(3R)-3-hydroxypyrrolidin-1-yl]pyridin-3-yl}quinolin-4-yl)carbonyl]amino}methyl)cyclohexyl]methyl}-carbamate]
280 nM	500 nM	Cc1cnc(CNc2ccc(-c3cc(C(=O)NC[C@H]4CC[C@H](CNC(=O)OC(C)(C)C)CC4)c4ccccc4n3)cn2)cn1 [Example 159, tert-Butyl({trans-4-[({[2-(6-{[(5-methylpyrazin-2-yl)methyl]amino}pyridin-3-yl)quinolin-4-yl]carbonyl}amino)methyl]cyclohexyl}methyl)carbamate]
350 nM	740 nM	CC(C)(C)OC(=O)NC[C@H]1CC[C@H](CNC(=O)c2cc(-c3cn[nH]c3)nc(-c3cccc(CN)c3)c2)CC1 [Example 239, tert-Butyl [(trans-4-{[({2-[3-(aminomethyl)phenyl]-6-(1H-pyrazol-4-yl)pyridin-4-yl}carbonyl)amino]methyl}cyclohexyl)methyl]carbamate]
330 nM	1550 nM	CC(C)(C)OC(=O)NC[C@H]1CC[C@H](CNC(=O)c2cc(-c3ccc(OCC(N)=O)nc3)nc3ccccc23)CC1 [Example 178, tert-Butyl[(trans-4-{[({2-[6-(2-amino-2-oxoethoxy)pyridin-3-yl]quinolin-4-yl}carbonyl)amino]-methyl}cyclohexyl)methyl]carbamate]
130 nM	230 nM	CC(C)(C)OC(=O)NC[C@H]1CC[C@H](CNC(=O)c2cc(-c3ccc(N4CCC(C(N)=O)CC4)nc3)nc3ccccc23)CC1 [Example 153, tert-Butyl[(trans-4-{[({2-[6-(4-carbamoylpiperidin-1-yl)pyridin-3-yl]-quinolin-4-yl}carbonyl)amino]-methyl}cyclohexyl)methyl]carbamate]
440 nM	1950 nM	CN1CCN(c2ccc(-c3cc(C(=O)NC[C@H]4CC[C@H](CNC(=O)OCc5nccs5)CC4)c4ccccc4n3)cn2)CC1 [Example 130, 1,3-Thiazol-2-ylmethyl-[(trans-4-{[({2-[6-(4-methylpiperazin-1-yl)pyridin-3-yl]quinolin-4-yl}carbonyl)amino]methyl}cyclohexyl)methyl]carbamate]
2440 nM	7940 nM	CN1CCN(c2ccc(-c3cc(C(=O)NC[C@H]4CC[C@H](CNC(=O)OCCn5cccn5)CC4)c4ccccc4n3)cn2)CC1 [Example 129, 2-(1H-Pyrazol-1-yl)ethyl-[(trans-4-{[({2-[6-(4-methylpiperazin-1-yl)pyridin-3-yl]quinolin-4-yl}carbonyl)amino]methyl}cyclohexyl)methyl]carbamate]
1860 nM	5760 nM	CN1CCN(c2ccc(-c3cc(C(=O)NC[C@H]4CC[C@H](CNC(=O)OCCC#N)CC4)c4ccccc4n3)cn2)CC1 [Example 132, 2-Cyanoethyl[(trans-4-{[({2-[6-(4-methylpiperazin-1-yl)pyridin-3-yl]quinolin-4-yl}carbonyl)amino]methyl}cyclohexyl)methyl]carbamate]
680 nM	6310 nM	CN(C)CCC1CCN(c2cc(C(=O)NC[C@H]3CC[C@H](CNC(=O)OC4CCOCC4)CC3)c3ccccc3n2)CC1 [Example 224, Tetrahydro-2H-pyran-4-yl {[trans-4-({[(2-{4-[2-(dimethylamino)ethyl]piperidin-1-yl}quinolin-4-yl)carbonyl]amino}methyl)cyclohexyl]methyl}carbamate]
370 nM	1600 nM	CN(C)CCNc1ccc(-c2cc(C(=O)NC[C@H]3CC[C@H](CNC(=O)O[C@H]4CCOC4)CC3)c3ccccc3n2)cn1 [Example 199, (3S)-Tetrahydrofuran-3-yl({trans-4-[({[2-(6-{[2-(dimethylamino)ethyl]-amino}pyridin-3-yl)quinolin-4-yl]carbonyl}amino)-methyl]cyclohexyl}-methyl)carbamate]
410 nM	820 nM	Cn1cc(CNc2ccc(-c3cc(C(=O)NC[C@H]4CC[C@H](CNC(=O)OC(C)(C)C)CC4)c4ccccc4n3)cn2)cn1 [Example 166, tert-Butyl({trans-4-[({[2-(6-{[(1-methyl-1H-pyrazol-4-yl)methyl]amino}-pyridin-3-yl)quinolin-4-yl]carbonyl}amino)-methyl]cyclohexyl}methyl)carbamate]
560 nM	1960 nM	CC(=O)NCCC1CCN(c2cc(C(=O)NC[C@H]3CC[C@H](CNC(=O)OC(C)(C)C)CC3)c3ccccc3n2)CC1 [Example 192, tert-Butyl [(trans-4-{[({2-[4-(2-acetamidoethyl)piperidin-1-yl]quinolin-4-yl}carbonyl)amino]methyl}cyclohexyl)methyl]carbamate]

Reference: patent publication US20090306133A1, “New Acetyl Coenzyme A Carboxylase (ACC) Inhibitors And Uses In Treatments Of Obesity And Diabetes Mellitus - 087” (ASTRAZENECA AB, priority 2007, published 2009)
